Values after ≈ are worked out from the molar mass of the structure shown. Where two headings read alike, the source gives them in different places.
Key:
[1] = test system: Escherichia coli (Ec-9), AAC(6')-1; test: MIC, two-fold agar dilution; assay type: cell-based; conditions: 18 h, Table 3, Mueller-Hinton agar, 10^-4 dilution, enzyme AAC(6')-1
[2] = test system: Hemophylus influenzae (He-2); test: MIC, two-fold agar dilution; assay type: cell-based; conditions: 18 h; Table 3; GC agar, 10^-2 dilution
[3] = test system: Klebsiella pneumoniae (Kp-33), AAC(3)-3; test: MIC, two-fold agar dilution; assay type: cell-based; conditions: 18 h, Table 3, Mueller-Hinton agar, 10^-4 dilution, enzyme AAC(3)-3
[4] = test system: Streptococcus pyogenes (Sp-3); test: MIC, two-fold agar dilution; assay type: cell-based; conditions: 18 h, Table 3, GC agar, 10^-2 dilution
[5] = test system: Escherichia coli NIHJ (Ec-1); test: MIC, two-fold agar dilution; assay type: cell-based; conditions: 18 h, Table 3, Mueller-Hinton agar, 10^-4 dilution
[6] = test system: Streptococcus pneumoniae (Dp-4); test: MIC, two-fold agar dilution; assay type: cell-based; conditions: 18 h, Table 3, GC agar, 10^-2 dilution
[7] = test system: Bacteroides fragilis (Bf-1); test: MIC against anaerobic bacteria; assay type: cell-based; conditions: 18 h, Table 4, GAM Medium, pH 7
[8] = test system: Staphylococcus epidermidis (Si-2), ANT (4'); test: MIC, two-fold agar dilution; assay type: cell-based; conditions: 18 h, Table 3, Mueller-Hinton agar, 10^-4 dilution, enzyme ANT (4')
[9] = test system: Streptococcus viridans (Sv-1); test: MIC, two-fold agar dilution; assay type: cell-based; conditions: 18 h, Table 3, GC agar, 10^-2 dilution
[10] = test system: P. vulgaris (Pv-3); test: MIC, agar dilution; assay type: cell-based; conditions: Proteus vulgaris, 18 h
Method: (§1) The minimum inhibitory concentrations (MIC) of Bu-2349A and B were determined against a wide variety of bacteria by the two-fold agar dilution method. Mueller-Hinton agar medium was generally used for the determination of bacterial MIC except for species of Streptococcus, Neisseria and Hemophilus for which Gonococcus agar medium (GC agar, Nissui Co., Tokyo) was used. Gifu anaerobe agar medium (GAM agar, Eiken Co., Tokyo) was used for anaerobic bacteria. The MIC's were determined after overnight incubation at 37° C. with an initial inoculum equivalent to a 10^-4 dilution of an 18-hour culture for the aerobic and anaerobic bacteria, except for Streptococcus, Neisseria and Hemophilus for which a 10^-2 dilution was used.
(§2) The influence of inoculum size on MIC was tested on Mueller-Hinton agar using an inoculum of […], 10^-2 or 10^-4 dilution of the overnight culture of test organisms.
(§3) The effect of media pH on the MIC's of Bu-2349A was determined at three pH levels (6, 7 and 8) using Mueller-Hinton agar.
(§4) The media effect on the MIC's of Bu-2349A was tested using four kinds of assay media: Mueller-Hinton agar (MHA), nutrient agar (NA), heart infusion agar (HIA) and brain heart infusion agar (BHIA). The pH was adjusted at 7 and a 10^-4 dilution of overnight culture was used for the inoculum.

[11] = test system: S. aureus (Sa-63); test: MIC, agar dilution; assay type: cell-based; conditions: Staphylococcus aureus, 18 h
Method: as §1, §2, §3, §4

[12] = test system: Mycobacterium 607 (M6-1); test: MIC, two-fold agar dilution; assay type: cell-based; conditions: 18 h, Table 3, Mueller-Hinton agar, 10^-4 dilution
[13] = test system: Propionibacterium acnes (Pc-102); test: MIC against anaerobic bacteria; assay type: cell-based; conditions: Cutibacterium acnes, 18 h; Table 4; GAM Medium, pH 7
Method: as §1

[14] = test system: Clostridium chauvoei (Ch-1); test: MIC against anaerobic bacteria; assay type: cell-based; conditions: 18 h, Table 4, GAM Medium, pH 7
Method: as §1

[15] = test system: anaerobic organisms; test: in vitro activity against anaerobic bacteria, overall statement; assay type: cell-based; conditions: most of the anaerobic organisms tested
[16] = test system: Peptococcus aerogenes ATCC 14963 (Pe-101); test: MIC against anaerobic bacteria; assay type: cell-based; conditions: Peptoniphilus asaccharolyticus, ATCC14963, 18 h; Table 4; GAM Medium, pH 7
[17] = test system: Serratia marcescens (Sm-2); test: MIC, two-fold agar dilution; assay type: cell-based; conditions: 18 h, Table 3, Mueller-Hinton agar, 10^-4 dilution
[18] = test system: Fusobacterium varium ATCC 8501 (Fv-1); test: MIC against anaerobic bacteria; assay type: cell-based; conditions: ATCC8501, 18 h, Table 4, GAM Medium, pH 7
[19] = test system: Enterobacter cloacae (El-35), AAC(3)-3; test: MIC, two-fold agar dilution; assay type: cell-based; conditions: 18 h, Table 3, Mueller-Hinton agar, 10^-4 dilution, enzyme AAC(3)-3
[20] = test system: Acidoaminococcus fermentans ATCC 25085 (Ae-1); test: MIC against anaerobic bacteria; assay type: cell-based; conditions: 18 h; Table 4; GAM Medium, pH 7
[21] = solubility; assay type: physicochemical; conditions: hydrochloride salt
[22] = test system: S. aureus, E. coli, K. pneumoniae, P. vulgaris and P. mirabilis; test: experimental infections in mice, overall statement; assay type: in vivo; conditions: im
Method: The in vivo antibacterial activity of Bu-2349A was determined by experimental infections in mice. Mice were challenged via the intraperitoneal route with a 100 X LD50 dose of the pathogens in a 5% suspension of hog gastric mucin (American Laboratories, Omaha, Neb.). Bu-2349A was administered by the intramuscular route immediately after the bacterial challenge.

[23] = test system: Bacteroides fragilis (Bf-3); test: MIC against anaerobic bacteria; assay type: cell-based; conditions: 18 h, Table 4, GAM Medium, pH 7
[24] = test system: Proteus stuartii (Ps-2), AAC(2'); test: MIC, two-fold agar dilution; assay type: cell-based; conditions: 18 h; Table 3; Mueller-Hinton agar, 10^-4 dilution; enzyme AAC(2')
[25] = pH 6, Table 6, Mueller-Hinton Agar, 10^-4 dilution, pH 6, read-out: MIC
[26] = pH 7, Table 5, Mueller-Hinton Agar, pH 7, inoculum 10^-2 dil., read-out: MIC
[27] = pH 7, Table 5, Mueller-Hinton Agar, pH 7, inoculum 10^-4 dil., read-out: MIC
[28] = pH 7, Table 6, Mueller-Hinton Agar, 10^-4 dilution, pH 7, read-out: MIC
[29] = pH 7, Table 7, pH 7, 10^-4 dilution, BHIA, read-out: MIC
[30] = pH 7, Table 7, pH 7, 10^-4 dilution, HIA, read-out: MIC
[31] = pH 7, Table 7, pH 7, 10^-4 dilution, MHA, read-out: MIC
[32] = pH 7, Table 7, pH 7, 10^-4 dilution, NA, read-out: MIC
[33] = pH 8, Table 6, Mueller-Hinton Agar, 10^-4 dilution, pH 8, read-out: MIC

**Q.** With `C=C1OC(OC2C(CO)OC(Oc3ccc(C(=O)NCCCNCCCCNCCCCN)cc3)C2O)C(O)C(OC2OC(CO)C(OC3OC(C)C(N)C(O)C3NC(=O)C(C)N)C(O)C2O)C1O` (centres unmarked) [Bu-2349A] as the compound, how does the MIC [1] read?
**A.** 0.8 mg/L (≈ 0.808 µM)

**Q.** And the MIC [2]?
**A.** > 100 mg/L

**Q.** And the MIC [3]?
**A.** 3.1 mg/L (≈ 3.13 µM)

**Q.** What about the MIC [4] of the same compound?
**A.** > 100 mg/L

**Q.** What about the MIC [5] of the same compound?
**A.** 1.6 mg/L (≈ 1.62 µM)

**Q.** And the MIC [6]?
**A.** > 100 mg/L

**Q.** What about the MIC [7] of the same compound?
**A.** > 100 mg/L

**Q.** And the MIC [8]?
**A.** 3.1 mg/L (≈ 3.13 µM)

**Q.** And the MIC [9]?
**A.** > 100 mg/L

**Q.** And the MIC [10, 25]?
**A.** > 50 mg/L

**Q.** What about the MIC ([10]; pH 7) of the same compound?
**A.** 12.5 mg/L (≈ 12.6 µM)

**Q.** What about the MIC [10, 26] of the same compound?
**A.** 6.3 mg/L (≈ 6.36 µM)

**Q.** What about the MIC [10, 27] of the same compound?
**A.** 6.3 mg/L (≈ 6.36 µM)

**Q.** What about the MIC [10, 28] of the same compound?
**A.** 6.3 mg/L (≈ 6.36 µM)

**Q.** What about the MIC [10, 29] of the same compound?
**A.** 3.1 mg/L (≈ 3.13 µM)

**Q.** What about the MIC [10, 30] of the same compound?
**A.** 1.6 mg/L (≈ 1.62 µM)

**Q.** What about the MIC [10, 31] of the same compound?
**A.** 3.1 mg/L (≈ 3.13 µM)

**Q.** What about the MIC [10, 32] of the same compound?
**A.** 1.6 mg/L (≈ 1.62 µM)

**Q.** What about the MIC [10, 33] of the same compound?
**A.** 6.3 mg/L (≈ 6.36 µM)

**Q.** And the MIC [11, 25]?
**A.** > 50 mg/L

**Q.** And the MIC ([11]; pH 7)?
**A.** 12.5 mg/L (≈ 12.6 µM)

**Q.** And the MIC [11, 26]?
**A.** 6.3 mg/L (≈ 6.36 µM)

**Q.** And the MIC [11, 27]?
**A.** 6.3 mg/L (≈ 6.36 µM)

**Q.** And the MIC [11, 28]?
**A.** 6.3 mg/L (≈ 6.36 µM)

**Q.** And the MIC [11, 29]?
**A.** 6.3 mg/L (≈ 6.36 µM)

**Q.** And the MIC [11, 30]?
**A.** 3.1 mg/L (≈ 3.13 µM)

**Q.** And the MIC [11, 31]?
**A.** 6.3 mg/L (≈ 6.36 µM)

**Q.** What about the MIC [11, 32] of the same compound?
**A.** 6.3 mg/L (≈ 6.36 µM)

**Q.** And the MIC [11, 33]?
**A.** 3.1 mg/L (≈ 3.13 µM)

**Q.** What about the MIC [12] of the same compound?
**A.** 3.1 mg/L (≈ 3.13 µM)

**Q.** And the MIC [13]?
**A.** 12.5 mg/L (≈ 12.6 µM)

**Q.** What about the MIC [14] of the same compound?
**A.** > 100 mg/L

**Q.** And the “activity against anaerobic organisms” value [15]?
**A.** inactive

**Q.** What about the MIC [16] of the same compound?
**A.** > 100 mg/L

**Q.** What about the MIC [17] of the same compound?
**A.** 25 mg/L (≈ 25.2 µM)

**Q.** And the MIC [18]?
**A.** > 100 mg/L

**Q.** And the MIC [19]?
**A.** 3.1 mg/L (≈ 3.13 µM)

**Q.** And the MIC [20]?
**A.** 50 mg/L (≈ 50.5 µM)

**Q.** What about the “solubility in methanol, ethanol, dimethylsulfoxide and dimethylformamide” value ([21]; methanol, ethanol, dimethylsulfoxide and dimethylformamide) of the same compound?
**A.** slightly soluble

**Q.** And the “solubility in other common organic solvents” value ([21]; other common organic solvents)?
**A.** practically insoluble

**Q.** And the solubility in water ([21]; water)?
**A.** soluble

**Q.** And the “protection against systemic lethal infections” value [22]?
**A.** good protection

**Q.** And the MIC [23]?
**A.** > 100 mg/L

**Q.** What about the MIC [24] of the same compound?
**A.** 1.6 mg/L (≈ 1.62 µM)
